Assay: HILIC, Waters ACQUITY UPLC BEH Amide, 100 × 2.1 mm, 1.7 µm; A: water + 0.125% formic acid + 10 mM ammonium formate; B: 5% water + 95% acetonitrile + 0.125% formic acid + 10 mM ammonium formate; gradient (min/%B) 0/100 2/100 7.7/70 9.5/40 10.25/30 12.75/100 17/100
Settings: stereoisomer not certain

Row | Structure (SMILES) | LC retention time
1 | CSc1ncnc2nc[nH]c12 [6-Methylmercaptopurine] | 1.49 min
2 | CC(O)C(O)C1=Nc2c(nc(N)[nH]c2=O)NC1 (stereo unspecified) [7,8-Dihydrobiopterin] | 7.18 min
3 | Cn1c[n+](C2OC(CO)C(O)C2O)c2nc(N)nc([O-])c21 (stereo unspecified) [7-Methylguanosine] | 7.34 min
4 | O=[N+]([O-])c1cccc2cn[nH]c12 [7-Nitroindazole] | 1.03 min
5 | Nc1ncnc2c1[nH]c(=O)n2C1CC(O)C(CO)O1 (stereo unspecified) [8-Oxo-2-deoxyadenosine] | 5.11 min
6 | CC12CCC3c4ccc(O)cc4CCC3C1CC(OC1OC(C(=O)O)C(O)C(O)C1O)C2O (stereo unspecified) [16-Glucuronide-estriol] | 6.49 min
7 | O=C(O)CC1C(=O)Nc2ccccc21 (stereo unspecified) [(2-oxo-2,3-dihydro-1H-indol-3-yl)acetic acid] | 2.02 min
8 | CN1C(=O)CCC1c1ccc[n+]([O-])c1 [(S)-Cotinine N-oxide] | 3.87 min
9 | CCCCCC=CCC=CCC=CCC=CCCCC(=O)Nc1ccc(O)cc1 [AM 404] | 0.97 min
10 | CC(C)C1=CC2=CCC3C(C)(C(=O)O)CCCC3(C)C2CC1 (stereo unspecified) [Abietic acid] | 1.11 min
11 | CC1OC(OC2C(CO)OC(OC3C(CO)OC(O)C(O)C3O)C(O)C2O)C(O)C(O)C1NC1C=C(CO)C(O)C(O)C1O (stereo unspecified) [Acarbose] | 9.88 min
12 | CC(=O)Nc1ccc(OC2OC(C(=O)O)C(O)C(O)C2O)cc1 (stereo unspecified) [Acetaminophen glucuronide] | 7.73 min
13 | CC(=O)N1C(=O)C(=O)c2ccccc21 [Acetylisatin] | 2.4 min
14 | Cc1c2oc3c(C)ccc(C(=O)NC4C(=O)NC(C(C)C)C(=O)N5CCCC5C(=O)N(C)CC(=O)N(C)C(C(C)C)C(=O)OC4C)c3nc-2c(C(=O)NC2C(=O)NC(C(C)C)C(=O)N3CCCC3C(=O)N(C)CC(=O)N(C)C(C(C)C)C(=O)OC2C)c(N)c1=O (stereo unspecified) [Actinomycin D] | 1.03 min
15 | Nc1ncnc2nc[nH]c12 [Adenine] | 4.71 min
16 | Nc1ncnc2c1ncn2C1OC2COP(=O)(O)OC2C1O (stereo unspecified) [Adenosine 3',5'-cyclic monophosphate] | 7.62 min
17 | Nc1ncnc2c1ncn2C1OC(COP(=O)(O)O)C(O)C1O (stereo unspecified) [Adenosine 5'-monophosphate] | 8.88 min
18 | Nc1ncnc2c1ncn2C1OC(CO)C(OP(=O)(O)O)C1O (stereo unspecified) [Adenosine-3-monophosphate] | 8.88 min
19 | Nc1ncnc2c1ncn2C1OC(CO)C(O)C1O (stereo unspecified) [Adenosine] | 4.77 min
20 | CC12CC(=O)C3C(CCC4=CC(=O)CCC43C)C1CCC2=O (stereo unspecified) [Adrenosterone] | 1.1 min
21 | Cc1[nH]cnc1CN1CCc2c(c3ccccc3n2C)C1=O [Alosetron] | 4.19 min
22 | Cc1nnc2n1-c1ccc(Cl)cc1C(c1ccccc1)=NC2 [Alprazolam] | 1.34 min
23 | O=C(c1ccc(F)cc1)C1CCN(CCn2c(=S)[nH]c3ccccc3c2=O)CC1 [Altanserin] | 2.64 min

Row | Structure (SMILES) | LC retention time
24 | NC12CC3CC(CC(C3)C1)C2 [Amantadine] | 4.88 min
25 | CC(N)Cc1ccccc1 (stereo unspecified) [Amphetamine] | 4.6 min
26 | CCOC(=O)OC(C)OC1=C(C(=O)Nc2ccccn2)N(C)S(=O)(=O)c2ccccc21 (stereo unspecified) [Ampiroxicam] | 0.95 min
27 | O=C1CN2Cc3c(ccc(Cl)c3Cl)N=C2N1 [Anagrelide] | 1.82 min
28 | CC(C)(C#N)c1cc(Cn2cncn2)cc(C(C)(C)C#N)c1 [Anastrozole] | 0.98 min
29 | CC12CCC3C(CCC4CC(O)CCC43C)C1CCC2O (stereo unspecified) [Androstane-3,17-diol] | 0.96 min
30 | CC12CCC3C(CCC4=CC(=O)CCC43C)C1CCC2=O (stereo unspecified) [Androstenedione] | 1.09 min
31 | CC12CCC3C(CCC4CC(O)CCC43C)C1CCC2=O (stereo unspecified) [Androsterone] | 4.62 min
32 | CCCCCC=CCC=CCC=CCC=CCCCC(=O)NCCc1ccc(O)c(O)c1 [Arachidonyl dopamine] | 1.14 min
33 | O=C1CCc2ccc(OCCCCN3CCN(c4cccc(Cl)c4Cl)CC3)cc2N1 [Aripiprazole] | 3.14 min
34 | CN1C2CCC1CC(OC(=O)C(CO)c1ccccc1)C2 (stereo unspecified) [Atropine] | 4.32 min
35 | CN1C(=O)COc2c(C(=O)NC3CN4CCC3CC4)cc(Cl)cc21 (stereo unspecified) [Azasetron] | 4.66 min
36 | CN1CCCC(n2nc(Cc3ccc(Cl)cc3)c3ccccc3c2=O)CC1 (stereo unspecified) [Azelastine] | 2.95 min
37 | CCN(CC)CCOC(=O)C(O)(c1ccccc1)c1ccccc1 [Benactyzine] | 2.16 min
38 | CC(COc1ccccc1Cc1ccccc1)N1CCCCC1 (stereo unspecified) [Benproperine] | 1.99 min
39 | c1ccc2scnc2c1 [Benzothiazole] | 1.11 min
40 | CN1C2CCC1C(C(=O)O)C(OC(=O)c1ccccc1)C2 (stereo unspecified) [Benzoylecgonine] | 3.63 min
41 | CC(Cc1ccccc1)N(C)Cc1ccccc1 (stereo unspecified) [Benzphetamine] | 2.03 min
42 | CC(C)NCC(O)COc1ccc(CCOCC2CC2)cc1 (stereo unspecified) [Betaxolol] | 3.05 min
43 | CC(O)(CS(=O)(=O)c1ccc(F)cc1)C(=O)Nc1ccc(C#N)c(C(F)(F)F)c1 (stereo unspecified) [Bicalutamide] | 0.99 min
44 | CNCCCCOc1ccccc1Cc1ccccc1 [Bifemelane] | 2.46 min
45 | c1ccc(-c2ccc(C(c3ccccc3)n3ccnc3)cc2)cc1 (stereo unspecified) [Bifonazole] | 1.19 min

Other lines, results leading:

Row | LC retention time | Structure (SMILES)
46 | 5.77 min | CCCC(=O)OC(CC(=O)[O-])C[N+](C)(C)C [(R)-Butyrylcarnitine]
47 | 8.55 min | CN(C)C(N)=NCCCC(N)C(=O)O (stereo unspecified) [ADMA]
48 | 1.33 min | CC(C=CC1(O)C(C)=CC(=O)CC1(C)C)=CC(=O)O (stereo unspecified) [Abscisic acid]
49 | 1.37 min | CC(=O)Nc1ccc(O)cc1 [Acetaminophen]
50 | 1.11 min | CC(=O)Nc1ccccc1 [Acetanilide]
51 | 2.94 min | CC(=O)NO [Acetohydroxamic acid]
52 | 7.19 min | CC(=O)OC(CC(=O)[O-])C[N+](C)(C)C (stereo unspecified) [Acetylcarnitine]
53 | 1.58 min | CC(=O)Nc1ccc(CC(=O)O)cc1 [Actrarit]
54 | 8.92 min | NCCCCN=C(N)N [Agmatine]
55 | 8.41 min | CC(N)C(=O)NC(C)C(=O)O (stereo unspecified) [Ala-Ala]
56 | 9.11 min | CC(N)C(=O)NC(CCC(N)=O)C(=O)O (stereo unspecified) [Ala-Gln]
57 | 7.83 min | CCC(C)C(NC(=O)C(C)N)C(=O)O (stereo unspecified) [Ala-Ile]
58 | 7.6 min | CC(C)CC(NC(=O)C(C)N)C(=O)O (stereo unspecified) [Ala-Leu]
59 | 7.66 min | CC(N)C(=O)NC(C(=O)O)C(C)C (stereo unspecified) [Ala-Val]
60 | 8.05 min | CC(N)C(=O)O (stereo unspecified) [Alanine]
61 | 1.22 min | CCCSc1ccc2nc(NC(=O)OC)[nH]c2c1 [Albendazole]
62 | 5.55 min | CC(C)(C)NCC(O)c1ccc(O)c(CO)c1 (stereo unspecified) [Albuterol]
63 | 4.29 min | COc1cc2nc(N(C)CCCNC(=O)C3CCCO3)nc(N)c2cc1OC (stereo unspecified) [Alfuzosin]
64 | 8.56 min | NC(=O)NC(NC(N)=O)C(=O)O [Allantoic acid]
65 | 5.52 min | NC(N)=NC(=O)c1nc(Cl)c(N)nc1N [Amiloride]
66 | 1.87 min | CCCCc1oc2ccccc2c1C(=O)c1cc(I)c(OCCN(CC)CC)c(I)c1 [Amiodarone]
67 | 2.76 min | CCN1CCCC1CNC(=O)c1cc(S(=O)(=O)CC)c(N)cc1OC (stereo unspecified) [Amisulpride]
68 | 1.81 min | CC(C)c1ccc2oc3nc(N)c(C(=O)O)cc3c(=O)c2c1 [Amlexanox]

Row | LC retention time | Structure (SMILES)
69 | 4.24 min | CCOC(=O)C1=C(COCCN)NC(C)=C(C(=O)OC)C1c1ccccc1Cl (stereo unspecified) [Amlodipine]
70 | 9.49 min | Cn1cncc1CC(NC(=O)CCN)C(=O)O (stereo unspecified) [Anserine]
71 | 9.66 min | CC(NC(=O)C(N)CCCN=C(N)N)C(=O)O (stereo unspecified) [Arg-Ala]
72 | 9.85 min | NC(N)=NCCCC(N)C(=O)NCC(=O)O (stereo unspecified) [Arg-Gly]
73 | 9.51 min | NC(N)=NCCCC(N)C(=O)N1CCCC1C(=O)O (stereo unspecified) [Arg-Pro]
74 | 9.9 min | NC(N)=NCCCC(N)C(=O)NC(CO)C(=O)O (stereo unspecified) [Arg-Ser]
75 | 9.3 min | CC(C)C(NC(=O)C(N)CCCN=C(N)N)C(=O)O (stereo unspecified) [Arg-Val]
76 | 5.45 min | CC1CNc2c(cccc2S(=O)(=O)NC(CCCN=C(N)N)C(=O)N2CCC(C)CC2C(=O)O)C1 (stereo unspecified) [Argatroban]
77 | 9.53 min | NC(N)=NCCCC(N)C(=O)O (stereo unspecified) [Arginine]
78 | 1.44 min | O=C1OC(C(O)CO)C(O)=C1O (stereo unspecified) [Ascorbic acid]
79 | 9.47 min | NC(CC(=O)O)C(=O)NC(CCC(=O)O)C(=O)O (stereo unspecified) [Asp-Glu]
80 | 8.14 min | NC(CC(=O)O)C(=O)NC(Cc1ccccc1)C(=O)O (stereo unspecified) [Asp-Phe]
81 | 8.81 min | NC(=O)CC(N)C(=O)O (stereo unspecified) [Asparagine]
82 | 9.33 min | NC(CC(=O)O)C(=O)O (stereo unspecified) [Aspartic acid]
83 | 2.42 min | CNCCC(Oc1ccccc1C)c1ccccc1 (stereo unspecified) [Atomoxetine]
84 | 4.85 min | O=C(O)CCNC(=O)c1ccc(N=Nc2ccc(O)c(C(=O)O)c2)cc1 [Balsalazide]
85 | 1.26 min | CC1CC2C3CCC4=CC(=O)C=CC4(C)C3(Cl)C(O)CC2(C)C1(O)C(=O)CO (stereo unspecified) [Beclomethasone]
86 | 1.33 min | CCOC(=O)C(CCc1ccccc1)NC1CCc2ccccc2N(CC(=O)O)C1=O (stereo unspecified) [Benazepril]
87 | 1.46 min | COC(=O)C1=C(C)NC(C)=C(C(=O)OC2CCCN(Cc3ccccc3)C2)C1c1cccc([N+](=O)[O-])c1 (stereo unspecified) [Benidipine]
88 | 1.27 min | NC(=O)c1ccccc1 [Benzamide]
89 | 8.71 min | CC(=O)OCc1ccccc1 [Benzylacetate]
90 | 5.98 min | CC(C)CC(NC(=O)C(O)C(N)Cc1ccccc1)C(=O)O (stereo unspecified) [Bestatin]
91 | 7.24 min | C[N+](C)(C)CC(=O)[O-] [Betaine]

From the RepoRT retention time repository
